Assay results from PubChem BioAssay (NCI).
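96-well plates; 48 h exposure; 5 concentrations. Endpoints by linear interpolation between flanking doses. Not reached: highest tested concentration assigned. GI50 marks 50% less growth. TGI: concentration producing complete growth inhibition.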 Calls of active or inactive are those of the source. No stated cut-off is given here; in the data, active means GI50 below about 0.43 µM; inactive means the rest.

How the values were obtained:
Assay in all cases: NCI-60 cell line screen, 48 h
[1] = test system: SNB-78 CNS
[2] = test system: OVCAR-3 ovarian
[3] = test system: TK-10 renal
[4] = test system: OVCAR-8 ovarian
[5] = test system: KM20L2 colon
[6] = test system: RPMI-8226 leukemia
[7] = test system: MALME-3M melanoma
[8] = test system: PC-3 prostate
[9] = test system: NCI/ADR-RES ovarian

| Structure (SMILES) | TGI [1] | TGI [2] [µM] | TGI [3] | TGI [4] | TGI [5] [µM] | TGI [6] | TGI [7] | GI50 [1] | GI50 [2] [µM] | GI50 [3] | GI50 [4] | GI50 [5] [µM] | GI50 [6] | GI50 [7] | outcome [5] | TGI [8] [µM] | TGI [9] [µM] | GI50 [8] [µM] | GI50 [9] [µM] |
| --- | --- | --- | --- | --- | --- | --- | --- | --- | --- | --- | --- | --- | --- | --- | --- | --- | --- | --- | --- |
| CCCS(=O)(=O)/C(=C(\c1ccc(Br)cc1)S(=O)(=O)CCC)c1ccc(Br)cc1 | > 10 µM | > 10 | > 10 µM | > 10 µM | > 10 | > 10 µM | > 10 µM |  |  |  |  |  |  |  |  |  |  |  |  |
| CC(=O)O.[Au].c1ccc([PH+](c2ccccc2)c2ccccc2)cc1 | > 70.3 µM | 5.52 | 6.74 µM | 26.3 µM | 35 | 4.46 µM | 3.15 µM | 8.06 µM | 2.43 | 2.92 µM | 5.45 µM | 10.3 | 1.32 µM | 1.62 µM |  |  |  |  |  |
| C/C=C1/C(=C/c2[nH]c(/C=c3\[nH]/c(=C/C4=NC(=O)C(CC)=C4C)c(C)c3CCC(=O)O)c(CCC(=O)O)c2C)NC(=O)C1C (stereo not drawn) | > 150 µg/mL |  | > 150 µg/mL | > 150 µg/mL |  | > 150 µg/mL | > 150 µg/mL | > 150 µg/mL |  | > 150 µg/mL | > 150 µg/mL |  | > 150 µg/mL | > 150 µg/mL | inactive |  |  |  |  |
| COC(=O)C(=O)C(C(=O)C=C(C)C)C(=O)C(=O)Nc1ccc(C)cc1C (stereo not drawn) | > 100 µM | > 100 | > 100 µM | > 100 µM | > 100 | > 100 µM | > 100 µM |  |  |  |  |  |  |  |  |  |  |  |  |
| c1cc[c]([Pb]([c]2ccccc2)[c]2ccccc2)cc1 | > 100 µM | 23.8 |  | 72.5 µM | 91.6 | 90 µM | 36.6 µM | 13.2 µM | 10.4 |  | 12.4 µM | 23.3 | 14.5 µM | 16.7 µM |  |  |  |  |  |
| CN(C)C(c1ccccc1)C(O)c1ccccc1 (stereo not drawn) | > 100 µM | > 100 | > 100 µM |  | > 100 | > 100 µM | > 100 µM |  |  |  |  |  |  |  |  |  |  |  |  |
| N#CCC(=O)NC1C2CC3CC(C2)CC1C3 (stereo not drawn) | 43 µM | 32 | 46.2 µM | 33.1 µM | 33.6 | > 100 µM | 42.6 µM |  |  |  |  |  |  |  |  |  |  |  |  |
| OC/C=C(\I)CCCOCOCc1ccccc1 | > 100 µM | > 100 | > 100 µM | > 100 µM | > 100 | 47.5 µM |  |  |  |  |  |  |  |  |  |  |  |  |  |
| Cc1[nH]c2ccccc2c1C1Cc2ccccc2N1C(=O)/C(Cl)=C/c1ccccc1 (stereo not drawn) | > 100 µM | > 100 | > 100 µM | > 100 µM | > 100 | > 100 µM | > 100 µM |  |  |  |  |  |  |  |  |  |  |  |  |
| CCCCCCC(=O)C/C(=N/NC(N)=S)C(=O)NC1C2CC3CC(C2)CC1C3 (stereo not drawn) | > 100 µM | > 100 | > 100 µM | > 100 µM | > 100 | > 100 µM | > 100 µM |  |  |  |  |  |  |  |  |  |  |  |  |
| CC(=O)N1C/C(=C\c2ccc(N(C)C)cc2)C(=O)/C(=C/c2ccc(N(C)C)cc2)C1 | > 100 µM | 56.3 | > 100 µM | > 100 µM | > 100 | > 100 µM | > 100 µM |  |  |  |  |  |  |  |  |  |  |  |  |
| Cc1nc2ccccc2c(=O)n1-c1ccccc1F | > 100 µM | > 100 | > 100 µM | > 100 µM | > 100 |  | > 100 µM |  |  |  |  |  |  |  |  |  |  |  |  |
| CC(C)c1cc2c(O)c(c1)Cc1cc(C(C)C)cc(c1O)Cc1cc(C(C)C)cc(c1O)Cc1cc(C(C)C)cc(c1O)C2 | > 100 µM | > 100 | > 100 µM | > 100 µM | > 100 | > 100 µM | > 100 µM |  |  |  |  |  |  |  |  |  |  |  |  |
| FC(F)(F)c1nc(-c2ccccc2)oc1Sc1nnc(Sc2oc(-c3ccccc3)nc2C(F)(F)F)s1 | > 74 µM | > 57.7 | > 100 µM | 59.8 µM | > 100 | > 74.6 µM | 34.4 µM |  |  |  |  |  |  |  |  |  |  |  |  |
| O=c1[nH]c(=O)n(C2OC(CO)C(O)C(O)C2O)cc1F (stereo not drawn) | > 100 µM | > 100 | > 100 µM | > 100 µM | > 100 | > 100 µM | > 100 µM |  |  |  |  |  |  |  |  | > 100 | > 100 |  |  |
| N#CCc1ccc(C(C#N)/C(CCCC(=O)Nc2cccc([N+](=O)[O-])c2)=N/NC(N)=S)cc1 (stereo not drawn) | > 100 µM | > 100 | > 100 µM |  | > 100 | > 100 µM | > 100 µM |  |  |  |  |  |  |  |  |  |  |  |  |
| COc1ccc(/C=C\c2cc(OC)c(OC)c(OC)c2)cc1OC(=O)NCCN(C)C |  | 0.00347 | > 100 µM | 0.638 µM | 1.17 |  | 98.3 µM |  |  | > 47 µM |  |  |  |  |  |  |  |  |  |
| CC1=N/C(=C\c2cccc([N+](=O)[O-])c2)C(=O)O1 | > 100 µM |  | > 100 µM | > 100 µM | > 100 | > 100 µM | > 100 µM |  |  |  |  |  |  |  |  |  |  |  |  |
| COc1ccc(/C(Cl)=C(\C=O)c2ccc([N+](=O)[O-])cc2)cc1 | 50.1 µM | 53.4 | > 73.6 µM | 38.3 µM | 41.8 | 8 µM | 68.1 µM |  |  |  |  |  |  |  |  |  |  |  |  |
| CC(C)c1ccc(C(c2ccc(OCC(=O)O)cc2)c2ccc(C(C)C)cc(=O)c2O)c(O)c(=O)c1 | 56.7 µM | 8.31 | 42.8 µM | 58.3 µM | > 100 | 47 µM |  |  |  |  |  |  |  |  |  |  |  |  |  |
| Cc1ccc2c(c1)CN(C(=O)CCC(=O)OCc1ccccc1)c1ccc(C)cc1CN2C(=O)CCC(=O)OCc1ccccc1 | > 100 µM | > 100 | > 100 µM | > 100 µM | > 100 | > 100 µM | > 100 µM |  |  |  |  |  |  |  |  | > 100 | > 100 |  |  |
| Fc1ccc(-c2nn3ncccc3c2-c2ccnc(Nc3ccc4c(c3)OCCO4)n2)cc1 |  | > 16.2 | 9.93 µM | > 25 µM |  | > 25 µM | > 25 µM |  | 2.12 | 1.35 µM | 6.15 µM |  | 7.85 µM | 14.1 µM |  | > 25 | > 25 | 7.32 | 5.73 |
| N.N.O=C([O-])P(=O)([O-])[O-].[Na+].[Pt+4] | > 100 µM | > 100 | > 100 µM | > 100 µM | > 100 | > 100 µM | > 100 µM | > 100 µM | > 100 | > 100 µM | > 100 µM | > 100 | > 100 µM | > 100 µM |  |  |  |  |  |
